Measurements as given in the NIST ThermoML archive (doi:10.1021/acs.jced.8b01256).
± gives the expanded uncertainty stated by the source.

What was measured:
[1] = Molar enthalpy of transition or fusion; settings: Crystal; DSC
[2] = Crystal; DSC

Molar enthalpy of transition or fusion [1]: 2.55 ± 0.0908 kcal/mol
Triple point temperature [2]: 460.15 ± 1 K
Compound: Cc1[nH]nc2cc([N+](=O)[O-])ccc12 [3-methyl-6-nitroindazole]
